Consider 26 compounds from patent publication US12060347B2 (BRISTOL-MYERS SQUIBB COMPANY, priority 2016, dated 2024).

pIC50: −log10 of the molar value.

This test concerns the target T1, human PAR4 (Homo sapiens, UniProt Q96RI0).
T1 construct: expressed in transfected cells; host or cells: HEK293 PAR4 Clone 1.2A (BMS Arctic ID 383940)
T1 sequence (Q96RI0 18-385): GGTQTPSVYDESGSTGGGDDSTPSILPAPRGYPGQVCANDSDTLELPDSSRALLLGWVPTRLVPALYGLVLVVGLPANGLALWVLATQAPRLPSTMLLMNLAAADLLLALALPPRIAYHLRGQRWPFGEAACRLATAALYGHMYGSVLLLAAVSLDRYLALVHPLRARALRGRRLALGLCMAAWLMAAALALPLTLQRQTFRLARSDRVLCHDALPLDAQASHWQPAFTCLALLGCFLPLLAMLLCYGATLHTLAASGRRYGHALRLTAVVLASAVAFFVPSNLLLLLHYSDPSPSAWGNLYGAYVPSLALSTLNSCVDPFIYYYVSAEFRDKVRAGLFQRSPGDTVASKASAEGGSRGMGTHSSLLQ
As to the kind of experiment: PAR4 FLIPR assay: antagonism of agonist-peptide-induced calcium mobilization in PAR4-expressing HEK293 cells. The format is cell-based. Particulars: H-Ala-Phe(4-F)-[…]NH2-induced intracellular calcium mobilization, 11-point curves. (A change in cytosolic calcium serves as a functional read-out for many receptors and channels.)
As usually defined, the pIC50 is −log10 of the IC50, conventionally taken in molar units. In the case of `COc1cnc2c(-c3nc4cc(F)c(O[C@@H](C)[C@@H](C)OC(=O)Nc5cnc(C)c(C)c5)cc4s3)cc(Cl)cc2c1` [Example 787, (2R,3S)-3-((2-(6-chloro-3-methoxyquinolin-8-yl)-5-fluorobenzo[d]thiazol-6-yl)oxy)butan-2-yl (5,6-dimethylpyridin-3-yl)carbamate], the pIC50 is 8.54.
On to `COc1cnc2c(-c3nc4cc(F)c(O[C@@H](C)[C@@H](C)OC(=O)Nc5cccnc5)cc4s3)cc(Cl)cc2c1` [Example 788, (2R,3S)-3-((2-(6-chloro-3-methoxyquinolin-8-yl)-5-fluorobenzo[d]thiazol-6-yl)oxy)butan-2-yl pyridin-3-ylcarbamate], for which the pIC50 was 8.51.
The result for `COc1cnc2c(-c3nc4cc(F)c(O[C@@H](C)[C@@H](C)OC(=O)Nc5ccc(F)nc5)cc4s3)cc(Cl)cc2c1` [Example 789, (2R,3S)-3-((2-(6-chloro-3-methoxyquinolin-8-yl)-5-fluorobenzo[d]thiazol-6-yl)oxy)butan-2-yl (6-fluoropyridin-3-yl)carbamate] reads 8.62.
Regarding `COc1cnc2c(-c3nc4cc(F)c(O[C@@H](C)[C@@H](C)OC(=O)Nc5ccncc5)cc4s3)cc(Cl)cc2c1` [Example 790, (2R,3S)-3-((2-(6-chloro-3-methoxyquinolin-8-yl)-5-fluorobenzo[d]thiazol-6-yl)oxy)butan-2-yl pyridin-4-ylcarbamate], the pIC50 was 8.36.
The result for `COc1cnc2c(-c3nc4cc(F)c(O[C@@H](C)[C@@H](C)OC(=O)Nc5cnc(C)nc5)nc4s3)cc(C)cc2c1` [Example 791, (2R,3S)-3-((6-fluoro-2-(3-methoxy-6-methylquinolin-8-yl)thiazolo[5,4-b]pyridin-5-yl)oxy)butan-2-yl (2-methylpyrimidin-5-yl)carbamate] reads 8.64; that for `COc1cnc2c(-c3nc4cc(F)c(O[C@@H](C)[C@@H](C)OC(=O)Nc5cnc(CO)nc5)nc4s3)cc(C)cc2c1` [Example 792, (2R,3S)-3-((6-fluoro-2-(3-methoxy-6-methylquinolin-8-yl)thiazolo[5,4-b]pyridin-5-yl)oxy)butan-2-yl (2-(hydroxymethyl)pyrimidin-5-yl)carbamate], 7.96.
The result for `COc1cnc2c(-c3nc4cc(F)c(O[C@@H](C)[C@@H](C)OC(=O)Nc5cnc(CO)nc5)nc4s3)cc(Cl)cc2c1` [Example 793, (2R,3S)-3-((2-(6-chloro-3-methoxyquinolin-8-yl)-6-fluorothiazolo[5,4-b]pyridin-5-yl)oxy)butan-2-yl (2-(hydroxymethyl)pyrimidin-5-yl)carbamate] reads 7.62.
Regarding `COc1cnc2c(-c3nc4cc(F)c(OC[C@@H](C)OC(=O)Nc5cnc(CO)nc5)nc4s3)cc(Cl)cc2c1` [Example 794, (R)-1-((2-(6-chloro-3-methoxyquinolin-8-yl)-6-fluorothiazolo[5,4-b]pyridin-5-yl)oxy)propan-2-yl (2-(hydroxymethyl)pyrimidin-5-yl)carbamate], the negative-log IC50 (pIC50) is 8.00.
Next, `COc1cnc2c(-c3nc4c(Cl)c(F)c(O[C@@H](C)[C@@H](C)OC(=O)Nc5cnc(OCCO)nc5)cc4s3)cc(Cl)cc2c1` [Example 795, (2R,3S)-3-((4-chloro-2-(6-chloro-3-methoxyquinolin-8-yl)-5-fluorobenzo[d]thiazol-6-yl)oxy)butan-2-yl (2-(2-hydroxyethoxy)pyrimidin-5-yl)carbamate]: 9.10; `COc1cnc2c(-c3nc4c(Cl)c(F)c(O[C@@H](C)[C@@H](C)OC(=O)Nc5cnc(OC[C@@H](C)O)nc5)cc4s3)cc(Cl)cc2c1` [Example 796, (2R,3S)-3-((4-chloro-2-(6-chloro-3-methoxyquinolin-8-yl)-5-fluorobenzo[d]thiazol-6-yl)oxy)butan-2-yl (2-((R)-2-hydroxypropoxy)pyrimidin-5-yl)carbamate]: 8.89; `COc1cnc2c(-c3nc4c(Cl)c(F)c(O[C@@H](C)[C@@H](C)OC(=O)Nc5ccc(F)nc5)cc4s3)cc(Cl)cc2c1` [Example 797, (2R,3S)-3-((4-chloro-2-(6-chloro-3-methoxyquinolin-8-yl)-5-fluorobenzo[d]thiazol-6-yl)oxy)butan-2-yl (6-fluoropyridin-3-yl)carbamate]: 8.51.
Regarding `COc1cnc2c(-c3nc4c(Cl)c(F)c(O[C@@H](C)[C@@H](C)OC(=O)Nc5ccncc5)cc4s3)cc(Cl)cc2c1` [Example 798, (2R,3S)-3-((4-chloro-2-(6-chloro-3-methoxyquinolin-8-yl)-5-fluorobenzo[d]thiazol-6-yl)oxy)butan-2-yl pyridin-4-ylcarbamate], the pIC50 is 8.60.
Regarding `COc1cnc2c(-c3nc4c(Cl)c(F)c(O[C@@H](C)[C@@H](C)OC(=O)Nc5cccnc5)cc4s3)cc(Cl)cc2c1` [Example 799, (2R,3S)-3-((4-chloro-2-(6-chloro-3-methoxyquinolin-8-yl)-5-fluorobenzo[d]thiazol-6-yl)oxy)butan-2-yl pyridin-3-ylcarbamate], the pIC50 is 8.54.
`COc1cnc2c(-c3nc4c(Cl)c(F)c(O[C@@H](C)[C@@H](C)OC(=O)Nc5cnc(C)c(C)c5)cc4s3)cc(Cl)cc2c1` [Example 800, (2R,3S)-3-((4-chloro-2-(6-chloro-3-methoxyquinolin-8-yl)-5-fluorobenzo[d]thiazol-6-yl)oxy)butan-2-yl (5,6-dimethylpyridin-3-yl)carbamate]: the pIC50 is 8.60.
Consider `COc1cnc2c(-c3nc4c(Cl)c(F)c(O[C@@H](C)[C@@H](C)OC(=O)Nc5ccc(OC)nc5)cc4s3)cc(Cl)cc2c1` [Example 801, (2R,3S)-3-((4-chloro-2-(6-chloro-3-methoxyquinolin-8-yl)-5-fluorobenzo[d]thiazol-6-yl)oxy)butan-2-yl (6-methoxypyridin-3-yl)carbamate], for which the pIC50 was 8.59.
Take `COc1cnc2c(-c3nc4c(Cl)c(F)c(O[C@@H](C)[C@@H](C)OC(=O)Nc5cncc(C#N)c5)cc4s3)cc(Cl)cc2c1` [Example 802, (2R,3S)-3-((4-chloro-2-(6-chloro-3-methoxyquinolin-8-yl)-5-fluorobenzo[d]thiazol-6-yl)oxy)butan-2-yl (5-cyanopyridin-3-yl)carbamate]: the pIC50 was 8.70.
On to `COc1cncc(NC(=O)O[C@H](C)[C@H](C)Oc2cc3sc(-c4cc(Cl)cc5cc(OC)cnc45)nc3c(Cl)c2F)c1` [Example 803, (2R,3S)-3-((4-chloro-2-(6-chloro-3-methoxyquinolin-8-yl)-5-fluorobenzo[d]thiazol-6-yl)oxy)butan-2-yl (5-methoxypyridin-3-yl)carbamate], for which the pIC50 is 8.46.
Regarding `COc1cnc2c(-c3nc4c(Cl)c(F)c(O[C@@H](C)[C@@H](C)OC(=O)Nc5cncc(F)c5)cc4s3)cc(C)cc2c1` [Example 804, (2R,3S)-3-((4-chloro-5-fluoro-2-(3-methoxy-6-methylquinolin-8-yl)benzo[d]thiazol-6-yl)oxy)butan-2-yl (5-fluoropyridin-3-yl)carbamate], the pIC50 is 8.55.
On to `COc1cnc2c(-c3nc4c(C(O)C(C)(C)C)cc(F)cc4s3)cc(C)cc2n1` (centres unmarked) [Example 806, 1-(6-fluoro-2-(2-methoxy-7-methylquinoxalin-5-yl)benzo[d]thiazol-4-yl)-2,2-dimethylpropan-1-ol], for which the negative-log IC50 (pIC50) was 8.18.
The result for `COc1cnc2c(-c3nc4c(C(O)C(C)(C)C)cc(OC)nc4s3)cc(C)cc2n1` (centres unmarked) [Example 807, 1-(5-methoxy-2-(2-methoxy-7-methylquinoxalin-5-yl)thiazolo[5,4-b]pyridin-7-yl)-2,2-dimethylpropan-1-ol] reads 8.59; that for `COCc1cc(OC)cc2sc(-c3cc(C)cc4nc(OC)cnc34)nc12` [Example 808, 6-methoxy-2-(2-methoxy-7-methylquinoxalin-5-yl)-4-(methoxymethyl)benzo[d]thiazole], 8.70; that for `COc1cnc2c(-c3nc4cnccc4s3)cc(C)cc2n1` [Example 809, 2-(2-methoxy-7-methylquinoxalin-5-yl)thiazolo[4,5-c]pyridine], 7.27.
In the case of `COc1cnc2c(-c3nc4cc(F)c(OCCOC(=O)Nc5cccnc5)nc4s3)cc(C)cc2n1` [Example 810, 2-((6-fluoro-2-(2-methoxy-7-methylquinoxalin-5-yl)thiazolo[5,4-b]pyridin-5-yl)oxy)ethyl pyridin-3-ylcarbamate], the negative-log IC50 (pIC50) is 8.16.
With `COc1cnc2c(-c3nc4cc(F)c(OCCOC(=O)Nc5cnc(F)c(C)c5)nc4s3)cc(C)cc2n1` [Example 811, 2-((6-fluoro-2-(2-methoxy-7-methylquinoxalin-5-yl)thiazolo[5,4-b]pyridin-5-yl)oxy) ethyl (6-fluoro-5-methylpyridin-3-yl)carbamate], the pIC50 is 8.82.
With `COc1cnc2c(-c3nc4c(C)cc(OCCOC(=O)Nc5ccc(-c6cccs6)nc5)nc4s3)cc(C)cc2n1` [Example 812, 2-((2-(2-methoxy-7-methylquinoxalin-5-yl)-7-methylthiazolo[5,4-b]pyridin-5-yl)oxy) ethyl (6-(thiophen-2-yl)pyridin-3-yl)carbamate], the negative logarithm of the IC50 (pIC50) is 8.15.
Next, `CCOc1cnc2c(-c3nc4cc(F)c(OC[C@@H](C)OC(=O)Nc5cnc(C)nc5)nc4s3)cc(C)cc2n1` [Example 813, (R)-1-((2-(2-ethoxy-7-methylquinoxalin-5-yl)-6-fluorothiazolo[5,4-b]pyridin-5-yl)oxy)propan-2-yl (2-methylpyrimidin-5-yl)carbamate]: 9.00.
